Activity calls are given as the source filed them. No cut-off for these calls is given here.
Tests used:
JeKo-1 = assay: Antiproliferative activity against human JeKo-1 cells assessed as reduction in cell viability incubated for 72 hrs by CellTiter 96 Aqueous One Solution Cell Proliferation Assay; format: functional, cell-based; settings: JeKo-1, 72 h
[1] = Selectivity ratio of IC50 for BMX (unknown origin) to IC50 for FLT3-ITD mutant (unknown origin)
[2] = biological target: T1, Serine/threonine-protein kinase Chk1 (Homo sapiens) (UniProt O14757); assay: Inhibition of CHK1 in human MV4-11 cells assessed as upregulation of p21 protein expression measured after 90 mins by western blot analysis; format: cell-based; settings: dose 50-200 nM
T1 sequence (whole entry): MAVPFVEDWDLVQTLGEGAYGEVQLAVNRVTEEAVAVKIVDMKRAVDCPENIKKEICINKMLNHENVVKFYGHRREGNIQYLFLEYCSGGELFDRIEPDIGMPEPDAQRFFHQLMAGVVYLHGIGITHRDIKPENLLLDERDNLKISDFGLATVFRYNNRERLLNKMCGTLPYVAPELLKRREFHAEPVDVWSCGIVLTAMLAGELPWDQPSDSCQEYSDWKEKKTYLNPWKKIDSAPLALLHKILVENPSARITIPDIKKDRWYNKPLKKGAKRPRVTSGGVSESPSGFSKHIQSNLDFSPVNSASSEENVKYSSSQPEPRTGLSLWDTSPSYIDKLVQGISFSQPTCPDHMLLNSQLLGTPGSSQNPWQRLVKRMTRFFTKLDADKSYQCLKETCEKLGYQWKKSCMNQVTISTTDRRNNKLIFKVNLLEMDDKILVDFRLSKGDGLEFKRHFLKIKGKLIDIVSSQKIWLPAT

MOLM-13 = assay: Antiproliferative activity against human MOLM-13 cells assessed as reduction in cell viability incubated for 72 hrs by CellTiter 96 Aqueous One Solution Cell Proliferation Assay; format: functional, cell-based
[3] = Selectivity ratio of IC50 for TAK1 (unknown origin) to IC50 for FLT3-ITD mutant (unknown origin)
MV4-11 [4] = assay: Antitumor activity against human MV4-11 cells xenografted in nu/nu mouse assessed as reduction in tumor weight at 3 mg/kg, po qd for 22 days; format: functional, organism-based; settings: time 22.0 day
MV4-11 [5] = assay: Antitumor activity against human MV4-11 cells xenografted in nu/nu mouse assessed as inhibition of tumor growth administered orally qd for 22 days; format: functional; settings: dose 1-3 mg/kg, route po, time 22.0 day
[6] = Selectivity ratio of IC50 for IGF1R (unknown origin) to IC50 for FLT3-ITD mutant (unknown origin)
MV4-11 [7] = assay: Antitumor activity against human MV4-11 cells xenografted in nu/nu mouse assessed as inhibition of tumor growth rate at 3 mg/kg, po qd for 22 days; format: functional; settings: MV4-11, 528 h, time 22 day
BaF3 = assay: Antiproliferative activity against mouse BaF3 cells harboring FLT3 F691L mutant assessed as reduction in cell viability incubated for 72 hrs by CellTiter 96 Aqueous One Solution Cell Proliferation Assay; format: functional, cell-based
[8] = Selectivity ratio of IC50 for PKA (unknown origin) to IC50 for FLT3-ITD mutant (unknown origin)

Compound: CC(C)(O)CC(=O)N1CCc2cc(Nc3ncc(C(F)(F)F)c(N[C@H]4CC[C@@H](N)CC4)n3)ccc2C1
- IC50 (JeKo-1): 260 nM
- Ratio IC50 [1]: > 100
- inhibition [2]: Dose-Dependent Effect
- Activity (MOLM-13): Active
- Ratio IC50 [3]: > 100
- Activity (MV4-11 [4]): Active
- Activity (MV4-11 [5]): Dose-Dependent Effect
- Ratio IC50 [6]: > 100
- inhibition in vivo at 3 mg/kg (MV4-11 [7]): 52.8%
- Activity (BaF3): Active
- Ratio IC50 [8]: > 100

— ChEMBL document CHEMBL5321272 (J Med Chem, 2023)
